Data on 13 molecules can be found in patent US10590115B2, “Tetrahydroquinazoline derivatives useful as anticancer agents” (PFIZER INC., priority 2018, dated 2020).

Molecules are shown by their SMILES.

Test [1] concerns the target T1, KRAS G12C in MiaPaCa2 cells (Homo sapiens, UniProt P01116, G12C).
T1 construct: endogenous in cells; host or cells: MiaPaCa2
Kind of test: MiaPaCa2 Cell Activity Assay (Raf-1 RBD capture of active Ras, MSD). In kind it is cell-based. The settings on record: MIAPaCa-2 cells, 6 hours treatment; assay limit is 30.0 μM. The protocol: MiaPaCa2 Cell Activity Assay
(§1) Compounds presented in the present invention lead to the accumulation of the GDP bound Ras upon treatment of human cancer cell line.
(§2) The accumulation of the GDP-bound KRAS G12C in cellular environment was measured based on the principle that KRAS G12C only binds to its downstream kinase; Raf-1 (MAP Kinase Kinase Kinase), when in its active-GTP bound state. In this state, Ras binded to a domain of Raf-1 kinase referred to as the Ras Binding Domain (RBD).
(§3) MiaPaCa2 cells were grown in DMEM medium (Gibco 11995) supplemented with 10% fetal bovine serum and 1% penicillin/streptomycin. Cells were seeded in 96-well tissue culture plates at a density of 40,000 cells/well and allowed to attach for 16-24 hours. Test compounds were prepared as a 10 mM stock in DMSO and serially diluted in 100% DMSO using a 3-fold dilution scheme. An intermediate 5× concentrated plate in complete growth medium was made and 25 μl/well was added to the 100 μl of cells for a final concentration of 0.1% DMSO. Each concentration of exemplary compound was tested in duplicate. The negative control wells were cells with control inhibitor at 10 μM, and the positive control wells were cells without drugs, DMSO only. Plates were incubated for 6 hours at 37° C., 5% CO2. Following treatment, cells were washed 3× with ice-cold PBS and 100 μl/well ice-cold 1× Assay/Lysis. Buffer with protease inhibitors was added (25 mM HEPES, pH 7.5, 150 mM NaCl, 1% NP-40, 10 mM MgCl2, 1 mM EDTA, 2% Glycerol). Following lysis samples were frozen at −80° C.
(§4) Raf-1 RBD (LJIC-1988A1) was diluted to 100 ng/well in PBS and 5 μl/well was spot coated onto MSD high bind SECTOR plates (L15XB). Plates were incubated at room temperature for 1 hour on an orbital shaker. Plates were washed with PBS/0.05% Tween-20 and 50 μl/well of thawed lysate samples were added, followed by 50 μl of 1% MSD Blocker A in PBS/0.05% Tween-20 (R93BA). Plates were incubated for 1 hour on an orbital shaker and washed with PBS/0.05% Tween-20. 25 μl/well of Anti-pan-Ras Antibody (Cell Biolabs 244003) diluted 1:3000 was added in 1% MSD Blocker A solution and plates were incubated for 1 hour on an orbital shaker and washed with PBS/0.05% Tween-20. SULFO-TAG goat anti-mouse secondary antibody (MSD R32AC) was diluted 1:500 in MSD Blocker A solution and added at 25 μL/well. Plates were incubated for 1 hour on an orbital shaker and washed with PBS/0.05% Tween-20. 150 μl/well of Read Buffer T (MSD R92TC) diluted 1:3 in H2O was added and plates were read on a Meso Scale Discovery Sector Imager S600.
(§5) KRAS signal was normalized to maximum inhibition and DMSO control values, and IC50 values were generated using a 4 parameter fit of the dose response curve. The decrease in IC50 reflects that the exemplary compound lead to a higher level of accumulation of GDP-bound KRAS G12C than another exemplary compounds at specific timepoint of treatment of cancer cell line.

Test [2] deals with T2, GDP-loaded kRas (1-169) G12C, C51S, C80L, C118S (Homo sapiens, UniProt P01116, C118S/C51S/C80L/G12C).
T2 construct: GDP-loaded kRas (1-169) G12C, C51S, C80L, C118S
Put plainly: Mass Spectrometry Reactivity Assay (MSRA), covalent adduct with kRas G12C. Type of test: binding. Particulars: 0.5 h at room temperature; 5 μM KRas protein; typical final concentration of the compounds 10 μM. The procedure:
Mass Spectrometry Reactivity Assay (MSRA)
Compounds presented in the present invention covalently bind to kRas G12C using MSRA to detect a covalent adduct of the exemplary compound and kRas G12C. GDP-loaded kRas (1-169) G12C, C51S, C80L, C118S were diluted in the protein assay buffer 25 mM Hepes pH7.5, 200 mM NaCl, 5% glycerol to concentration of 5 μM and 20 μl of protein was transferred into 96-well plate. […] See K-Ras(G12C) inhibitors allosterically control GTP affinity and effector interactions; Ostrem J M, Peters U, Sos M L, Wells J A, Shokat K M; Nature. 2013, Nov. 28; 503(7477):548-51.
Exemplary compounds dissolved in DMSO were diluted 100-fold into solution containing 20 μl of 5 μM KRas protein in the 96-well plate to initiate the reaction. Mosquito (TPP Lab tech) liquid handling robot was used to add compounds to protein solution. Typical final concentration of the compounds was 10 μM. The plates were placed on a shaker for 1 min at RT, sealed and incubated at room temperature for specified time period. 5 μl of reaction mix was added to 10 μl of 0.2% formic acid stop solution and mixed well. Typical end points were 30, 120, 600 and 1440 min.
Data were collected using Waters Acquity H-class UPLC system/Xevo G2-XS TOF mass spectrometer. The protein was injected in their liquid phase onto a Bruker Microtrap protein column TR1/15109/03. The following buffers were used to set LC gradient: Buffer A: 0.2% formic acid H20; B: 0.2% formic acid CAN. The protein was eluted from the column using the following LC Gradient: 0-0.4 min, 10% B to 30% B; 0.4 min-2.4 min, to 90% B, 2.5 min, 10% B, 3 min, 10% B. Initial data analysis was performed using MaxEnt software right after data acquisition.
The standard auto processing function was used to define percentage of unmodified and modified kRas protein using MexEnt software right after data acquisition. The highest peak was defined as 100% while smaller peak as assigned the number defined by autoprocessing function. The percent of modification corresponding to modified with exemplary compound and unmodified KRas GDP-loaded kRas (1-169) G12C, C51S, C80L, C118S were exported to Xcel data analysis software.
The percent of modified protein at the defined concentration of exemplary compound was calculated using the following formula: % mod=Num of modified peak/Sum of modified+unmodified.

A further test has as its target T3, KRAS G12C in H358 cells (Homo sapiens, UniProt P01116, G12C).
T3 construct: endogenous in cells; host or cells: H358
Kind of test: H358 Cell Activity Assay (Raf-1 RBD capture of active Ras, MSD). Type of test: cell-based. Particulars: 6 hours treatment. The procedure: as §1, §2
as §3, with “H358” for “MiaPaCa2”, “RPMI 1640” for “DMEM”, “11875)” for “11995)”
as §4, §5

With `C=CC(=O)N1CCN(c2nc(OCCCN(C)C)nc3c2C[C@@H](C)[C@H](c2c(C)ccc4[nH]ncc24)C3)CC1` [Example C5, 1-{4-[(6R,7R)-2-[3-(dimethylamino)propoxy]-6-methyl-7-(5-methyl-1H-indazol-4-yl)-5,6,7,8-tetrahydroquinazolin-4-yl]piperazin-1-yl}prop-2-en-1-one], the IC50 (commonly the concentration that inhibits the measured activity by half) in test [1] stood at 0.214 µM; against KRAS G12C in H358 cells, 0.468 µM. For the same molecule, the “% Modification (0.5 h)” value in test [2] was 74%.

Turning to `C=CC(=O)N1CCN(c2nc(OCCO)nc3c2CCC(c2c(C)ccc4[nH]ncc24)C3)CC1` (stereo not drawn) [Example C3, 1-{4-[2-(2-hydroxyethoxy)-7-(5-methyl-1H-indazol-4-yl)-5,6,7,8-tetrahydroquinazolin-4-yl]piperazin-1-yl}prop-2-en-1-one], the IC50 in test [1] was determined as 12 µM. The “% Modification (0.5 h)” value in test [2] is reported as 15%.

The molecule `C=CC(=O)N1CCN(c2ncnc3c2C[C@@H](C)[C@H](c2c(Cl)c(C)cc4[nH]ncc24)C3)CC1` (relative stereo) [Example A8, 1-{4-[(6R,7R)-rel-7-(5-chloro-6-methyl-1H-indazol-4-yl)-6-methyl-5,6,7,8-tetrahydroquinazolin-4-yl]piperazin-1-yl}prop-2-en-1-one] had an IC50 in test [1] of 0.462 µM. Also, the “% Modification (0.5 h)” value in test [2] is 54%.

Regarding `C=CC(=O)N1CCN(c2nc(OCCCN(C)C)nc3c2C[C@@H](C)[C@H](c2c(Cl)c(C)cc4[nH]ncc24)C3)CC1` (relative stereo) [Example C7, 1-(4-{(6R,7R)-rel-7-(5-chloro-6-methyl-1H-indazol-4-yl)-2-[3-(dimethylamino)propoxy]-6-methyl-5,6,7,8-tetrahydroquinazolin-4-yl}piperazin-1-yl)prop-2-en-1-one], the IC50 in test [1] turned out to be 0.088 µM; on KRAS G12C in H358 cells, 0.106 µM. Also, in test [2], the “% Modification (0.5 h)” value turned out to be 73%.

In test [1], `C=CC(=O)N1CCN(c2nc(N3CC(N(C)C)C3)nc3c2C[C@@H](C)[C@H](c2c(C)c(Cl)cc4[nH]ncc24)C3)C[C@H]1C` [Example F13, 1-[(2R)-4-{(6R,7R)-7-(6-chloro-5-methyl-1H-indazol-4-yl)-2-[3-(dimethylamino)azetidin-1-yl]-6-methyl-5,6,7,8-tetrahydroquinazolin-4-yl}-2-methylpiperazin-1-yl]prop-2-en-1-one] gave an IC50 of 0.113 µM. The “% Modification (0.5 h)” value in test [2] was found to be 79%.

Consider `C=CC(=O)N1CCN(c2nc(N3CC(CN(C)C)C3)nc3c2C[C@@H](C)[C@H](c2c(C)ccc4[nH]ncc24)C3)CC1` (relative stereo) [Example F9], for which the IC50 in test [1] was 1 µM. The “% Modification (0.5 h)” value in test [2] is 32%.

In the case of `C=CC(=O)N1CCN(c2ncnc3c2CCC(c2c(C)ccc4[nH]ncc24)C3)CC1` (stereo not drawn) [Example A1, 1-{4-[7-(5-methyl-1H-indazol-4-yl)-5,6,7,8-tetrahydroquinazolin-4-yl]piperazin-1-yl}prop-2-en-1-one], the IC50 in test [1] was 7.86 µM. Besides, in test [2], the “% Modification (0.5 h)” value stood at 14%.

Take `C=CC(=O)N1CCN(c2ncnc3c2C[C@@H](C)[C@H](c2c(C)c(Cl)cc4[nH]ncc24)C3)CC1` (relative stereo) [Example A9, 1-{4-[(6R,7R)-rel-7-(6-chloro-5-methyl-1H-indazol-4-yl)-6-methyl-5,6,7,8-tetrahydroquinazolin-4-yl]piperazin-1-yl}prop-2-en-1-one]: 0.155 µM corresponded to half-maximal inhibition in test [1] (IC50). Besides, in test [2], the “% Modification (0.5 h)” value was determined as 77%.

Consider `C=CC(=O)N1CCN(c2nc(N3CC(N(C)C)C3)nc3c2C[C@@H](C)[C@H](c2c(Cl)c(C)cc4[nH]ncc24)C3)CC1` (relative stereo) [Example F6, 1-(4-{(6R,7R)-rel-7-(5-chloro-6-methyl-1H-indazol-4-yl)-2-[3-(dimethylamino)azetidin-1-yl]-6-methyl-5,6,7,8-tetrahydroquinazolin-4-yl}piperazin-1-yl)prop-2-en-1-one], for which the IC50 turned out to be 0.126 µM in test [1] and 0.116 µM against KRAS G12C in H358 cells. Also, in test [2], the “% Modification (0.5 h)” value turned out to be 83%.

`C=CC(=O)N1CC2(C1)CN(c1ncnc3c1CCC(c1c(C)ccc4[nH]ncc14)C3)C2` (stereo not drawn) [Example B1, 1-{6-[7-(5-methyl-1H-indazol-4-yl)-5,6,7,8-tetrahydroquinazolin-4-yl]-2,6-diazaspiro[3.3]hept-2-yl}prop-2-en-1-one] displayed an IC50 in test [1] of 18.7 µM. In addition, the “% Modification (0.5 h)” value in test [2] is on record as 9%.

As to `C=CC(=O)N1CCN(c2nc(N3CC(N(C)C)C3)nc3c2C[C@@H](C)[C@H](c2c(C)ccc4[nH]ncc24)C3)CC1` (single isomer, unassigned) [Example F2], the IC50 came out at 0.285 µM in test [1] and 0.277 µM against KRAS G12C in H358 cells. In test [2], the “% Modification (0.5 h)” value came to 79%.

In test [1], `C=CC(=O)N1CCN(c2nc(OCCOC)nc3c2CCC(c2c(C)ccc4[nH]ncc24)C3)CC1` (stereo not drawn) [Example C1, 1-{4-[2-(2-methoxyethoxy)-7-(5-methyl-1H-indazol-4-yl)-5,6,7,8-tetrahydroquinazolin-4-yl]piperazin-1-yl}prop-2-en-1-one] showed an IC50 of 9.84 µM. Moreover, the “% Modification (0.5 h)” value in test [2] is listed as 19%.

`C=CC(=O)N1CCN(c2nc(N3CC(N(C)C)C3)nc3c2C[C@@H](C)[C@H](c2c(Cl)ccc4[nH]ncc24)C3)CC1` (single isomer, unassigned) [Example F10]: the IC50 in test [1] amounted to 0.169 µM; against KRAS G12C in H358 cells, 0.395 µM.
